Values of other authors in paper PMC7449315 (Journal for Immunotherapy of Cancer, 2020).

conditions: early phase I studies, single agent; ref 28 30 31; cited from earlier work

Q: With NS(=O)(=O)NCCNc1nonc1C(=NO)Nc1ccc(F)c(Br)c1 [epacadostat] as the compound, how does the best overall response read?
A: Its best overall response is “stable disease”.

Q: Which best overall response does the source give for O[C@H](C[C@H]1c2c(F)cccc2-c2cncn21)[C@H]1CC[C@H](O)CC1 [navoximod] here?
A: The best overall response was “stable disease”.

Q: For Cn1cc(C[C@@H](N)C(=O)O)c2ccccc21 [indoximod], which best overall response is on record?
A: The best overall response was “stable disease”.
